Laboratory results: patent publication US20060024264A1, “Antimicrobial copolymers and uses thereof” (priority 2004, published 2006)

Tested on: E. coli
Assay: Antimicrobial assays (MIC, cell growth by optical density at 595 nm)
Type: cell-based
Settings: Escherichia coli; incubation time 18 hours; 2-fold dilution series 500-3.9 μg/mL
Description: Antimicrobial assays. Each polymer was dissolved in DMSO (5 mg/mL). […] The polymer solutions with E. coli were incubated at 36° C. for 18 hours, and cell growth was measured by optical density at λ=595 nm (Liu, D., et al., Angew. Chem. Int. Ed., 43:1158 (2004); Tew, G. N., et al., PNAS 99:5110 (2002)).

C=C(C)C(=O)OCCN.Cl [Monomer, 2-aminoethyl methacrylate hydrochloride]
MIC: > 500 µg/mL
